According to patent US10618900B2, “5-aromatic alkynyl substituted benzamide compound and preparation method, pharmaceutical composition, and use thereof” (SHANGHAI INSTITUTE OF MATERIA MEDICA, CHINESE ACADEMY OF …, priority 2015, dated 2020):

Columns and labels:
[1] = target: mGluR5 (Homo sapiens (Human), UniProt P41594); experiment: In vitro activity test for mGluR5, HDB Fluo-8 calcium fluorescence detection (FLIPR); type: cell-based; conditions: HEK293/mGluR5 cell line
From the text: Experimental instrument: FLIPR Tetra real-time fluorescence imaging analysis system
Experimental method: HDB Fluo-8 calcium fluorescence detection method
Experimental principle: HDB Fluo-8 calcium ion fluorescence detection method is a fast, simple and reliable fluorescence detection method of intracellular calcium concentration changes. The Fluo 8-AM fluorescent dye is an […] derivative of Fluo 8 which can easily penetrate the cell membrane into the cell by culture. The fluorescent dye into the cell will be hydrolyzed by intracellular esterase, the resulting Fluo 8 cannot easily pass through the lipid bimolecular membrane as a polar molecule, and will retain in the cell, and combine with calcium (Ca^2+) to produce fluoresces.
Cells expressing GPCR receptor protein (mGluR5) were first calibrated with a calcium ion sensitive fluorescent probe and then stimulated with the compound. After stimulation, the activation of the receptor lead to the calcium ion mobilization, and the fluorescent probe captures the calcium ion to induce the fluorescence signal. The signal can be read by a fluorescent plate reader. The fluorescent plate reader contains a sampling head for compound addition, thus enabling the change of the fluorescence value of the compound be read in real time. […]

[2] = target: mGluR1 (Homo sapiens (Human), UniProt Q13255); experiment: mGluR5/1 selectivity test, HEK293/mGluR1 cell line, Fluo-8 calcium; type: cell-based; conditions: for IC50: HEK293/mGluR1 cell line; for mGluR5/mGluR1: selectivity ratio of IC50 values
Sequence of mGluR1 (Q13255 19-1194): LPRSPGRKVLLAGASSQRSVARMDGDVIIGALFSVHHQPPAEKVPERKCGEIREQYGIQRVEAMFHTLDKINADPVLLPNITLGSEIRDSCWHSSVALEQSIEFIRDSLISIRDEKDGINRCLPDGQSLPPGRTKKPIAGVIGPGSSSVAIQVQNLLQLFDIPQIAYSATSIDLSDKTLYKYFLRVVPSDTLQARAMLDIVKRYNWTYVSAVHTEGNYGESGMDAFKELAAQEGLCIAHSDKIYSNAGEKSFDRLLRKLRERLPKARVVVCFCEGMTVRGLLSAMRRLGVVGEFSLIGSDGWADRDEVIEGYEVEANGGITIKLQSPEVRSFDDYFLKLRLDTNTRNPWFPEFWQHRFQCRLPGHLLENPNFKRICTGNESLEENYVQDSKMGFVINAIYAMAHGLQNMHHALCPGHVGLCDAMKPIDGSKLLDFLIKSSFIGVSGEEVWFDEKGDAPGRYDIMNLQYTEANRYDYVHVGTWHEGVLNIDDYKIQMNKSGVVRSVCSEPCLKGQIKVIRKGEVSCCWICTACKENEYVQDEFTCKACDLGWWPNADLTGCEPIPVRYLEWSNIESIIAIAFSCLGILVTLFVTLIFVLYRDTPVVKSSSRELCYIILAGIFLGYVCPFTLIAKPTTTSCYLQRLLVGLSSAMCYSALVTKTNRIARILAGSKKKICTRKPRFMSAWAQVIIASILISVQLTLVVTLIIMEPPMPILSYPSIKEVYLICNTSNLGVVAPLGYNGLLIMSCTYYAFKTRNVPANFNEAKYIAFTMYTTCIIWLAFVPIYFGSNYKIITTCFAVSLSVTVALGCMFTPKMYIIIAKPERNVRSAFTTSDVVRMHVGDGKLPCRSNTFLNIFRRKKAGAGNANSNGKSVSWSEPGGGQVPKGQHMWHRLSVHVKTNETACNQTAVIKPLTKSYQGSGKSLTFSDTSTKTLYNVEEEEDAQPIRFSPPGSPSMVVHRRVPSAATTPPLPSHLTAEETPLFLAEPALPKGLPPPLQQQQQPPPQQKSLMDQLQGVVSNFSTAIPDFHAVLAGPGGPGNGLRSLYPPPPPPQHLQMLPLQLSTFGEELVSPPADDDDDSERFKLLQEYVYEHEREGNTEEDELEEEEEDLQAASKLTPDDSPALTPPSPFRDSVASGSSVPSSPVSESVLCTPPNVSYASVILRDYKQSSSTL
From the text: Experimental material: HEK293/mGluR5 cell line, HEK293/mGluR1 cell line, Fluo-8 calcium ion fluorescent dye, positive control JNJ16259685

[3] = system: ICR mice; experiment: Mouse forced swimming experiment; type: in vivo; conditions: positive control, 10 mg/kg intraperitoneal, later 4 min of 6 min
Experimental: Experimental principle: The principle of Mouse Forced Swimming Test (FST) is to allow the mouse to swim in a limited space from which it can not escape, thus inducing animal to non-movement state which reflects the animal's desperate behavior.
Experimental animals: ICR mice, 20-28 g, both male and female
Sample treatment: The test compounds were ground with 1% CMC (sodium carboxymethyl cellulose) aqueous solution to prepare a homogeneous solution. In vivo dose was 5 mg/kg, 10 mg/kg and 20 mg/kg, the compound was oral administered at 0.1 ml/10 g volume/body weight. Positive control drugs (amitriptyline and fluoxetine) were dissolved with 0.9% saline, in vivo dose was 10 mg/kg, administered by intraperitoneal injection at 0.1 ml/10 g volume/body weight. (Note: the mice were fasted for 8 h and drinked water ad libitum before the compound was given.)
Experimental Methods: mice were grouped randomly. […] On the second day of the test, the mice were orally administered the compound. After 1 hour (0.5 hours after intraperitoneal injection), the mice were then put in water to record the immobility time in the later 4 min of 6 min.

[4] = system: mice; experiment: Mouse tail suspension experiment; type: in vivo; conditions: positive control, FIG. 1
From the text: Experimental principle: Tail Suspension Test (TST) is a classic method which can quickly evaluate the efficacy of antidepressant drugs, excitement drugs, and sedative drugs. The principle is to use the status that the mouse give up struggle and enter the unique depression status after the tail was suspended and the attempt to escape was failed.
Experimental method: 20-24 g male mice were selected and the site at 2 cm part from the end of the tail was attached to a horizontal stick, so that the animal entered inverted state, and it's head was about 5 cm from the table, and boards were hung on both sides to separate the animal's sight. The immobility time of the administration group and the control group within 6 min were compared.

[5] = system: mice; experiment: Head twitches test (5-HTP induced); type: in vivo; conditions: positive control, FIG. 2
From the text: Experimental principle: Model Head Thrust Test (HTT) is first raised by Corne et al. in 1963, head twitches syndrome caused by 5-HT receptor excitement may be mediated through the 5-HT2 receptor. The head twitches behavior induced by 5-HTP in mice is more sensitive to antidepressants with different action mechanisms, such as citalopram, fluvoxamine and other 5-HT retake inhibitors, desipramine, maprotiline, nomifensine and other NA retake inhibitors and imipramine acting on both 5-HT and NA system.
Experimental method: 20-24 g male mice were selected. 3 h before the test, 100 mg/kg pargyline was intraperitoneal injected and then intraperitoneal injected with test drugs or saline. 5-HTP (5 mg/kg, ip) was injected 30 min later. After 10 min, the observation was started and the number of mice head twitches in 6 min was recorded. The numbers of the head twitches of experimental group and the saline control group were compared.

Sequence of mGluR5 (P41594 21-1212): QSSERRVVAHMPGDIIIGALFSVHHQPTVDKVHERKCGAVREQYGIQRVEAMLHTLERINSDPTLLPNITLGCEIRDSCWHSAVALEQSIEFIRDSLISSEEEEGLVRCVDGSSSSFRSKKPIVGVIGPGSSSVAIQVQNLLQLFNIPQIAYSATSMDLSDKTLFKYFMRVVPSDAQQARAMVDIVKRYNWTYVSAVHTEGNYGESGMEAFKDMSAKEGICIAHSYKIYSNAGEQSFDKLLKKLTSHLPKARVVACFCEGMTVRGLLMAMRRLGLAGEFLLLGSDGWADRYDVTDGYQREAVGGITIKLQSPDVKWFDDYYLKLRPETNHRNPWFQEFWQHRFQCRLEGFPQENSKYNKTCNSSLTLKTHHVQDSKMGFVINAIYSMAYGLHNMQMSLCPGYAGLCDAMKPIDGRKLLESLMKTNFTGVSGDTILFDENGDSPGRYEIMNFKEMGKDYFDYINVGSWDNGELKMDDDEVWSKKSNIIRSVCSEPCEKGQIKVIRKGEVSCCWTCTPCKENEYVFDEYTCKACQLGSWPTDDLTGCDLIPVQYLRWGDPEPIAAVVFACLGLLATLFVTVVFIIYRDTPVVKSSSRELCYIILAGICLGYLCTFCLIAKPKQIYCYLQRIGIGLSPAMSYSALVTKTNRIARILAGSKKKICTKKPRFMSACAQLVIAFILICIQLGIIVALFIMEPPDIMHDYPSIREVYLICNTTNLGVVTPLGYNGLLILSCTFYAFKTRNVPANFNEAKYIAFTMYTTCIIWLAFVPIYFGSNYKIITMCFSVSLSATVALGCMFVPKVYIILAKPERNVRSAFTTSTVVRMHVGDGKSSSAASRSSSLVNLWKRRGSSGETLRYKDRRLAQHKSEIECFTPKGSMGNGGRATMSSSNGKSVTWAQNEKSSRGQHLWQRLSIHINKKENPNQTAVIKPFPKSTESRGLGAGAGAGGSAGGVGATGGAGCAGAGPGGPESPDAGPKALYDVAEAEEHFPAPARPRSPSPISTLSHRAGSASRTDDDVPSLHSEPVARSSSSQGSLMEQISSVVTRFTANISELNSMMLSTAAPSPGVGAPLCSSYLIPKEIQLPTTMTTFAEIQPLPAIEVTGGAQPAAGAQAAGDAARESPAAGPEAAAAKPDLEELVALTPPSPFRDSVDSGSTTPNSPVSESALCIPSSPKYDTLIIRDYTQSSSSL

Row | IC50 [1] | IC50 [2] | mGluR5/mGluR1 [2] | SMILES | also measured
1 | 11 nM | > 100 µM | >9091 | Cc1nc(C#Cc2ccc(F)c(C(=O)Nc3ccc(F)cc3)c2)cs1 [ZD004, 2-fluoro-N-(4-fluorophenyl)-5-((2-methyl-thiZaol-4-yl)ethynyl)benzamide] | –
2 | 382 nM | – | – | O=C(Nc1ccc(F)cc1)c1cc(C#Cc2ccncc2)ccc1F [ZD039, 2-fluoro-N-(4-fluorophenyl)-5-(pyridin-4-ethynyl)benzamide] | –
3 | 19.4 nM | > 100 µM | >5155 | O=C(Nc1cccnc1)c1cc(C#Cc2ccccn2)ccc1F [ZD042, 2-fluoro-5-(pyridin-2-ethynyl)-N-(pyridin-3-yl)benzamide] | –
4 | 86.5 nM | – | – | N#Cc1ccc(NC(=O)c2cc(C#Cc3ccccn3)ccc2F)cc1 [ZD044, N-(4-cyanophenyl)-2-fluoro-5-(pyridin-2-ethynyl)benzamide] | –
5 | 15.2 nM | > 100 µM | >6601 | O=C(c1cc(C#Cc2ccccn2)ccc1F)N1CCc2ccccc2C1 [ZD046, (3,4-dihydro-isoquinolin-2(1H)-yl)(2-fluoro-5-(pyridin-2-ylethynyl)phenyl) methanone] | –
6 | 104 nM | – | – | Cc1ccc(C#Cc2ccccn2)cc1C(=O)Nc1ccc(F)cc1 [ZD040, N-(4-fluorophenyl)-2-methyl-5-(pyridin-2-ethynyl)benzamide] | –
7 | 71.3 nM | – | – | CC1c2ccccc2CCN1C(=O)c1cc(C#Cc2ccccn2)ccc1F (stereo not shown) [ZD048, (2-fluoro-5-(pyridin-2-ylethynyl)phenyl) (1-methyl-3,4-dihydro-isoquinolin-2(1H)-yl)methanone] | –
8 | – | – | – | COC1CCC(C(=O)c2ccc3nc4c(cc3c2)CCCO4)CC1 (stereo not shown) [JNJ16259685, reference compound] | IC50 ([2]; positive control): 0.0912 µM
9 | 14.8 nM | > 100 µM | >6757 | Cc1nc(C#Cc2cccc(C(=O)Nc3ccccc3)c2)cs1 [ZD014] | –
10 | 38 nM | > 100 µM | >2632 | Cc1nc(C#Cc2ccc(F)c(C(=O)N3CCc4ccccc4C3C)c2)cs1 (stereo not shown) [ZD049, (2-fluoro-5-((2-methyl-thiazol-4-yl)ethynyl)phenyl)(1-methyl-3,4-dihydro-isoquinolin-2(1H)-yl)methanone] | –
11 | 32.6 nM | – | – | Cc1nc(C#Cc2cccc(C(=O)N3CCc4ccccc4C3C)c2)cs1 (stereo not shown) [ZD011] | –
12 | 20.3 nM | > 100 µM | >4929 | O=C(Nc1ccc(F)cc1)c1cc(C#Cc2ccccn2)ccc1Cl [ZD036, 2-chloro-N-(4-fluorophenyl)-5-(pyridin-2-ethynyl)benzamide] | –
13 | – | – | – | CN(C)CCC=C1c2ccccc2CCc2ccccc21 [amitriptyline, reference compound] | immobility time (%) Mean ± SEM [3]: significantly improve; immobility time (%) Mean ± SEM ([3]; listed as CCAmitriptyline): 15.34 ± 5.96 %
14 | 133 nM | – | – | Cc1nc(C#Cc2cccc(C(=O)Nc3cccc(F)c3)c2)cs1 [ZD017, N-(3-fluorophenyl)-3-((2-methylthiazol-4-yl)ethynyl)benzamide] | –
15 | 134 nM | – | – | Cc1nc(C#Cc2cccc(C(=O)Nc3cccc(C#N)c3)c2)cs1 [ZD019, N-(3-cyanophenyl)-3-((2-methylthiazol-4-yl)ethynyl)benzamide] | –
16 | 6.65 nM | > 100 µM | >15044 | Cc1nc(C#Cc2ccc(F)c(C(=O)N3CCc4ccccc4C3)c2)cs1 [ZD047, (3,4-dihydro-isoquinolin-2(1H)-yl)(2-fluoro-5-((2-methyl-thiazol-4-yl)ethynyl)phenyl)methanone] | –
17 | – | – | – | CNCCC(Oc1ccc(C(F)(F)F)cc1)c1ccccc1 (stereo not shown) [Fluoxetine, fluoxetine, reference compound] | immobility time (%) Mean ± SEM [3]: 84.79 ± 12.73%; immobility time in the mouse tail suspension test [4]: significantly improve; number of head twitches [5]: significantly improve
18 | 13.9 nM | > 100 µM | >7194 | O=C(Nc1ccc(F)cc1)c1cc(C#Cc2ccccn2)ccc1F [ZD001, 2-fluoro-5-(pyridin-2-ethynyl)-N-(4-fluorophenyl)benzamide] | –
19 | 7.31 nM | > 100 µM | >13676 | Cc1nc(C#Cc2ccc(Cl)c(C(=O)Nc3ccc(F)cc3)c2)cs1 [ZD037, 2-chloro-N-(4-fluorophenyl)-5-((2-methyl-thiazol-4-yl)ethynyl)benzamide] | –
20 | 53.5 nM | – | – | Cc1nc(C#Cc2ccc(F)c(C(=O)Nc3ccc(C#N)cc3)c2)cs1 [ZD045, N-(4-cyanophenyl)2-fluoro-5-((2-methyl-thiazol-4-yl)ethynyl)benzamide] | –
21 | 86.6 nM | – | – | Cc1nc(C#Cc2cccc(C(=O)Nc3ccc(C#N)cc3)c2)cs1 [ZD010, N-(4-cyanophenyl)-3-((2-methylthiazol-4-yl)ethynyl)benzamide] | –
22 | 108 nM | – | – | Cc1nc(C#Cc2ccc(C)c(C(=O)Nc3ccc(F)cc3)c2)cs1 [ZD041, N-(4-fluorophenyl)-2-methyl-5-((2-methyl-thiazol-4-yl)ethynyl)benzamide] | –
